The values below come from ChEMBL document CHEMBL5303573, “Mapping human microbiome drug metabolism by gut bacteria and their genes” (Nature, 2019).

For data set [1] the following is noted: anaerostipes sp., 12 h, 2 µM.
Description: The drug is tested on Anaerostipes sp. strain: fecal isolate for biotransformation. The drug concentrations were measured before and after a 12-h incubation by liquid-chromatography-coupled mass spectrometry (LC–MS)
Data set [2] in a line: The drug is tested on Providencia stuartii strain: ATCC25827 for biotransformation. The drug concentrations were measured before and after a 12-h incubation by liquid-chromatography-coupled mass spectrometry (LC–MS). As to conditions: 2 µM.
A short description of data set [3]: The drug is tested on Eubacterium ventriosum strain: ATCC27560 for biotransformation. The drug concentrations were measured before and after a 12-h incubation by liquid-chromatography-coupled mass spectrometry (LC–MS). Type of data set: ADME. Further details: dose 2 uM, timepoint 0 vs 12 hours. As to conditions: 2 µM.
Data set [4] is described as follows: The drug is tested on Ruminococcus lactaris strain: ATCC29176 for biotransformation. The drug concentrations were measured before and after a 12-h incubation by liquid-chromatography-coupled mass spectrometry (LC–MS). The conditions noted are these: 2 µM.
Data set [5] can be described thus: The drug is tested on Bacteroides fragilis strain: HMW615 for biotransformation. The drug concentrations were measured before and after a 12-h incubation by liquid-chromatography-coupled mass spectrometry (LC–MS). As to conditions: 2 µM.
A short description of data set [6]: The drug is tested on Bifidobacterium longum subsp. Infantis strain: CCUG52486 for biotransformation. The drug concentrations were measured before and after a 12-h incubation by liquid-chromatography-coupled mass spectrometry (LC–MS). As to conditions: 2 µM.
Data set [7] is described as follows: The drug is tested on Blautia luti strain: DSM14534 for biotransformation. The drug concentrations were measured before and after a 12-h incubation by liquid-chromatography-coupled mass spectrometry (LC–MS). It counts as ADME. Further details: dose 2 uM, timepoint 0 vs 12 hours. The conditions noted are these: 2 µM.
Data set [8] in a line: The drug is tested on Parabacteroides merdae strain: ATCC43184 for biotransformation. The drug concentrations were measured before and after a 12-h incubation by liquid-chromatography-coupled mass spectrometry (LC–MS). The conditions noted are these: 2 µM.
The conditions of data set [9]: limosilactobacillus reuteri cf48-3a, 12 h, 2 µM.
Description: The drug is tested on Lactobacillus reuteri CF48-3A strain: BEI HM-102 for biotransformation. The drug concentrations were measured before and after a 12-h incubation by liquid-chromatography-coupled mass spectrometry (LC–MS)
The conditions of data set [10]: bacteroides intestinalis, 12 h, 2 µM.
Description: The drug is tested on Bacteroides intestinalis strain: DSM17393 for biotransformation. The drug concentrations were measured before and after a 12-h incubation by liquid-chromatography-coupled mass spectrometry (LC–MS)
The conditions of data set [11]: parabacteroides johnsonii, 12 h, 2 µM.
Description: The drug is tested on Parabacteroides johnsonii strain: DSM18315 for biotransformation. The drug concentrations were measured before and after a 12-h incubation by liquid-chromatography-coupled mass spectrometry (LC–MS)
For data set [12] the following is noted: segatella copri, 12 h, 2 µM.
Description: The drug is tested on Prevotella copri strain: DSM18205 for biotransformation. The drug concentrations were measured before and after a 12-h incubation by liquid-chromatography-coupled mass spectrometry (LC–MS)
Data set [13] can be described thus: The drug is tested on Anaerococcus hydrogenalis strain: DSM7454 for biotransformation. The drug concentrations were measured before and after a 12-h incubation by liquid-chromatography-coupled mass spectrometry (LC–MS). As to conditions: 2 µM.
Data set [14] in a line: The drug is tested on Odoribacter splanchnicus strain: fecal isolate for biotransformation. The drug concentrations were measured before and after a 12-h incubation by liquid-chromatography-coupled mass spectrometry (LC–MS). As to conditions: 2 µM.
For data set [15] the following is noted: parabacteroides distasonis, 12 h, 2 µM.
Description: The drug is tested on Parabacteroides distasonis strain: ATCC8503 for biotransformation. The drug concentrations were measured before and after a 12-h incubation by liquid-chromatography-coupled mass spectrometry (LC–MS)
For data set [16] the following is noted: bacteroides thetaiotaomicron, 12 h, 2 µM.
Description: The drug is tested on Bacteroides thetaiotaomicron strain: 3731 for biotransformation. The drug concentrations were measured before and after a 12-h incubation by liquid-chromatography-coupled mass spectrometry (LC–MS)
The nature of data set [17]: The drug is tested on Bacteroides caccae strain: ATCC43185 for biotransformation. The drug concentrations were measured before and after a 12-h incubation by liquid-chromatography-coupled mass spectrometry (LC–MS). As to conditions: 2 µM.
The nature of data set [18]: The drug is tested on Bacteroides sp. WH2 strain: WH2 for biotransformation. The drug concentrations were measured before and after a 12-h incubation by liquid-chromatography-coupled mass spectrometry (LC–MS). As to conditions: bacteroides sp. wh2, 12 h, 2 µM.
Data set [19] is described as follows: The drug is tested on Bacteroides finegoldii strain: DSM17565 for biotransformation. The drug concentrations were measured before and after a 12-h incubation by liquid-chromatography-coupled mass spectrometry (LC–MS). The conditions noted are these: 2 µM.
For data set [20] the following is noted: akkermansia muciniphila, 12 h, 2 µM.
Description: The drug is tested on Akkermansia muciniphila strain: ATCC BAA-835 for biotransformation. The drug concentrations were measured before and after a 12-h incubation by liquid-chromatography-coupled mass spectrometry (LC–MS)

On to `CN1CCC[C@@H]1CCO[C@](C)(c1ccccc1)c1ccc(Cl)cc1.O=C(O)/C=C/C(=O)O` [CLEMASTINE FUMARATE], for which the “Bacterial Biotransformation” value in [1], in [2], in [3], in [4], in data set [5] and in data set [6] was “Compound NOT metabolized” in each case. For the same compound, the “Bacterial Biotransformation” value in data set [7] is reported as “Compound NOT metabolized”; in data set [8], “Compound NOT metabolized”; in [9], “Compound NOT metabolized”; in data set [10], “Compound NOT metabolized”; in data set [11] it was “Compound NOT metabolized”; in data set [12] it was “Compound metabolized”. In addition, the “Bacterial Biotransformation” value is listed as “Compound NOT metabolized” in data set [13], “Compound metabolized” in [14] and “Compound metabolized” in data set [15].
For the compound `CCOC(=O)[C@H](CCc1ccccc1)N[C@@H](C)C(=O)N1Cc2ccccc2C[C@H]1C(=O)O`, the “Bacterial Biotransformation” value in [1] is recorded as “Compound NOT metabolized”; in data set [2], “Compound metabolized”; in [16], “Compound metabolized”; in data set [4] it was “Compound NOT metabolized”; in [17], “Compound metabolized”; in data set [5], “Compound metabolized”. Moreover, the “Bacterial Biotransformation” value is “Compound NOT metabolized” in [6]; “Compound NOT metabolized” in data set [7]; “Compound NOT metabolized” in [8]; “Compound NOT metabolized” in data set [9]; “Compound metabolized” in [10]; “Compound metabolized” in data set [11]. In addition, the “Bacterial Biotransformation” value is recorded as “Compound metabolized” in data set [12]; “Compound NOT metabolized” in data set [13]; “Compound NOT metabolized” in data set [18]; “Compound metabolized” in data set [14]; “Compound metabolized” in data set [15].
With `Nc1ccc(/N=N/c2ccccc2)c(N)n1` [PHENAZOPYRIDINE], the “Bacterial Biotransformation” value in data set [1] is reported as “Compound metabolized”; in [2] it was “Compound NOT metabolized”; in [16], “Compound metabolized”; in data set [3], “Compound metabolized”; in data set [4] it was “Compound metabolized”; in data set [17], “Compound metabolized”. In addition, the “Bacterial Biotransformation” value in data set [5] was “Compound metabolized”; in [7] it was “Compound metabolized”; in data set [8], “Compound metabolized”; in data set [9], “Compound NOT metabolized”; in [10], “Compound metabolized”; in data set [11], “Compound metabolized”. The “Bacterial Biotransformation” value in data set [12], in data set [13], in data set [18], in data set [19], in [14] and in data set [15] was “Compound metabolized” throughout.
`O=C1CN2Cc3c(ccc(Cl)c3Cl)N=C2N1` [ANAGRELIDE]: the “Bacterial Biotransformation” value in data set [1], in data set [2], in [16], in data set [3], in data set [4] and in data set [5] was “Compound NOT metabolized” each time. The “Bacterial Biotransformation” value was “Compound NOT metabolized” in [7]; “Compound NOT metabolized” in data set [10]; “Compound metabolized” in [11]; “Compound NOT metabolized” in data set [13]; “Compound NOT metabolized” in data set [18]; “Compound NOT metabolized” in [19]. The “Bacterial Biotransformation” value in data set [14] is listed as “Compound metabolized”; in [15], “Compound NOT metabolized”.
As to `CCOC(=O)[C@H](CCc1ccccc1)N[C@@H](C)C(=O)N1[C@H](C(=O)O)C[C@H]2CCCC[C@@H]21` [TRANDOLAPRIL], the “Bacterial Biotransformation” value in data set [1] is “Compound NOT metabolized”; in data set [2], “Compound NOT metabolized”; in data set [3], “Compound NOT metabolized”; in [4] it was “Compound NOT metabolized”; in data set [17], “Compound NOT metabolized”; in [5], “Compound metabolized”. Further, the “Bacterial Biotransformation” value in [6], in data set [20], in data set [7], in [8], in data set [9] and in [10] was “Compound NOT metabolized” each time. In addition, the “Bacterial Biotransformation” value is “Compound metabolized” in data set [12]; “Compound metabolized” in data set [13]; “Compound NOT metabolized” in data set [19]; “Compound metabolized” in [14]; “Compound metabolized” in [15].
Turning to `CC(C)NCC(O)COc1ccc(COCCOC(C)C)cc1.CC(C)NCC(O)COc1ccc(COCCOC(C)C)cc1.O=C(O)/C=C/C(=O)O` (stereo not drawn) [BISOPROLOL FUMARATE], the “Bacterial Biotransformation” value in data set [1], in data set [2], in data set [16], in data set [3], in data set [4] and in data set [17] was “Compound NOT metabolized” throughout. Moreover, the “Bacterial Biotransformation” value in data set [5], in data set [6], in data set [7], in [8], in data set [10] and in data set [11] was “Compound NOT metabolized” each time. In addition, the “Bacterial Biotransformation” value in data set [12], in data set [13], in data set [18], in data set [19] and in data set [14] was “Compound NOT metabolized” throughout.
